≈ marks a conversion by molar mass, not a printed value.
Assays:
[1] = system: HCMV recombinant mutant virus (RV145); assay: HCMV microtiter plate assay (beta-glucuronidase reporter); assay type: cell-based, Human Cytomegalovirus; details: for IC50 (ug/ml) HCMV: HCMV in human foreskin fibroblasts
Excerpt: Ninety-six well plate cultures of human foreskin fibroblasts are infected in the presence of inhibitor compound with a HCMV recombinant mutant virus whose genome contains the prokaryotic beta-glucuronidase gene (Jefferson, R. A., S. M. Burgess, and D. Hirsh. 1986. Beta-glucuronidase from Escherichia coli as a gene fusion marker. Proc. Natl. Acad. Sci. USA 83:8447-8451) whose expression is controlled by a viral promoter. An example of such a virus is RV145 (Jones, T. R., V. P. Muzithras, and Y. Gluzman. 1991. Replacement mutagenesis of the human cytomegalovirus genome: US10 and US11 gene products are nonessential. J. Virol. 65:5860-5872). Since it is under the control of a viral promoter, beta-glucuronidase expression is an indirect indicator of growth and replication of HCMV in this assay. At 96 hours post-infection, the infected cell lysates are prepared (using 50 mM sodium phosphate [pH7.0] containing 0.1% Triton X-100 and 0.1% sarkosyl) and assayed for beta-glucuronidase activity using a substrate for the enzyme which when cleaved yields either a product which can be measured colorimetrically in a spectrophotometer or fluorescently in a microfluorimeter. Examples of such substrates are p-nitrophenyl-beta-D-glucuronide and methylumbelliferylglucuronide, respectively. The presence of an antiviral compound is indicated by the reduced expression of the HCMV genome resident beta-glucuronidase gene, compared to the absence of inhibitor. […] Data from this assay generated using varying amounts of inhibitor compound is also used to estimate the IC50 of an inhibitor compound.

VZV strain Ellen = assay: VZV Antiviral (ELISA) assay; assay type: cell-based; details: for IC50 (ug/ml) VZV: VZV strain Ellen in HFF cells
Experimental: For the generation of stock VZV to be used in the assay, VZV strain Ellen (ATCC #VR-1367) is used to infect human foreskin fibroblast (HFF) cells at low multiplicity (less than 0.1) and incubated overnight at 37° C. in 5% CO2. After the overnight incubation, the mixture of uninfected and VZV-infected HFF infected cells are then harvested and added to each well of 96-well plates (3.5×10^4 cells in 100 μl DMEM supplemented with 2% FBS) which contain test compound or the reference standard drug control (in 100 μl DMEM supplemented with 2% FBS per well). These cells are incubated for three days at 37° C. in 5% CO2, then fixed for ELISA assay. The primary antibody is murine anti-VZV glycoprotein II monoclonal antibody (Applied Biosystems, Inc. #13-145-100) and the secondary antibody is goat anti-mouse IgG linked to β-galactosidase. Thus the extent of viral replication is determined by assessing β-galactosidase activity by quantifying the generation of the 4-methyl umbelliferone fluorescent cleavage product after addition of the methyl umbelliferyl-β-D-galactoside (Sigma #M1633) substrate on a microfluorimeter (365 nm for excitation and 450 nm for emission). Antiviral activity (IC50) of the test compound is determined by comparing the flourescence obtained in absence of compound to that obtained in the presence of compound.

SMILES	IC50 (ug/ml) HCMV [1]	IC50 (ug/ml) VZV (VZV strain Ellen)	IC50 ([1]; Human betaherpesvirus 5, Fibroblast, read-out: IC50 (ug/ml) HCMV)	inhibition at 10 µg/mL (VZV strain Ellen; Human alphaherpesvirus 3, read-out: % inhibition 10 ug/ml VZV, at 10 ug/ml, VZV strain Ellen in HFF cells)
CC(NC(=S)Nc1ccc(NC(=O)c2cscn2)cc1)c1ccc(Cl)c(Cl)c1 (stereo not shown) [Example 848]	0.002 µg/mL (≈ 4.43 nM)	0.19 µg/mL (≈ 421 nM)		
CC(NC(=S)Nc1ccc(NC(=O)c2cscn2)cc1)c1cc(C(F)(F)F)ccc1F (stereo not shown) [Example 833]	0.0019 µg/mL (≈ 4.06 nM)	>7.5 µg/mL		
CC(NC(=S)Nc1ccc(NC(=O)c2cscn2)cc1)c1ccc(Br)cc1F (stereo not shown) [Example 841]	0.0011 µg/mL (≈ 2.29 nM)	0.77 µg/mL (≈ 1610 nM)		
O=C(Nc1ccc(NC(=S)NCCCc2ccccc2)cc1)c1csnn1 [Example 613]	0.011 µg/mL (≈ 27.7 nM)	>10 µg/mL		
CC(NC(=S)Nc1ccc(NC(=O)c2csnn2)cc1)c1cc(C(F)(F)F)cc(C(F)(F)F)c1 (stereo not shown) [Example 818]	0.0016 µg/mL (≈ 3.08 nM)	>7.5 µg/mL		
C[C@H](NC(=S)Nc1ccc(NC(=O)c2csnn2)cc1)c1ccc(Cl)cc1 [Example 820]	0.006 µg/mL (≈ 14.4 nM)	>7.5 µg/mL		
O=C(Nc1ccc(NC(=S)NCc2ccccc2Cl)cc1)c1csnn1 [Example 729]	0.02 µg/mL (≈ 49.5 nM)			
C[C@H](NC(=S)Nc1ccc(NC(=O)c2csnn2)cc1)c1cc(C(F)(F)F)cc(C(F)(F)F)c1 [Example 825]	0.0013 µg/mL (≈ 2.5 nM)	>7.5 µg/mL		
O=C(Nc1ccc(NC(=S)NCc2cc(Cl)cc(Cl)c2)cc1)c1ccco1 [Example 582]	0.01 µg/mL (≈ 23.8 nM)	8 µg/mL (≈ 19000 nM)		
O=C(Nc1ccc(NC(=S)NCCc2cc(C(F)(F)F)cc(C(F)(F)F)c2)cc1)c1ccco1 [Example 614]	0.024 µg/mL (≈ 47.9 nM)	7 µg/mL (≈ 14000 nM)		
CCCCC(NC(=S)Nc1ccc(NC(=O)c2csnn2)cc1)c1cc(C(F)(F)F)cc(C(F)(F)F)c1 (stereo not shown) [Example 859]	0.00001 µg/mL (≈ 0.0178 nM)	0.5 µg/mL (≈ 890 nM)		
O=C(Nc1ccc(NC(=S)NCc2cc(F)cc(C(F)(F)F)c2)cc1)c1ccco1 [Example 585]	0.015 µg/mL (≈ 34.3 nM)	>10 µg/mL		
CC(NC(=S)Nc1ccc(NC(=O)c2cscn2)cc1)c1ccccc1C(F)(F)F (stereo not shown) [Example 845]	0.0060 µg/mL (≈ 13.3 nM)	>7.5 µg/mL		
CC(NC(=S)Nc1ccc(NC(=O)c2cscn2)cc1)c1ccc(Cl)cc1F (stereo not shown) [Example 851]	0.017 µg/mL (≈ 39.1 nM)	1.43 µg/mL (≈ 3290 nM)		
O=C(Nc1ccc(NC(=S)NCCOc2ccccc2Cl)cc1)c1csnn1 [Example 733]	0.018 µg/mL (≈ 41.5 nM)			
CC(NC(=S)Nc1ccc(NC(=O)c2cscn2)cc1)c1ccccc1Br (stereo not shown) [Example 843]	0.0031 µg/mL (≈ 6.72 nM)	>7.5 µg/mL		
O=C(Nc1ccc(NC(=S)Nc2ccc(F)cc2)cc1)c1csnn1 [Example 740]	0.1 µg/mL (≈ 268 nM)			
CC(NC(=S)Nc1ccc(NC(=O)c2cscn2)cc1)c1ccc(F)c(C(F)(F)F)c1 (stereo not shown) [Example 838]	0.0007 µg/mL (≈ 1.49 nM)	>7.5 µg/mL		
CCCC(NC(=S)Nc1ccc(NC(=O)c2csnn2)cc1)c1cc(C(F)(F)F)cc(C(F)(F)F)c1 (stereo not shown) [Example 858]	0.0007 µg/mL (≈ 1.28 nM)	>7.5 µg/mL		
CC(NC(=S)Nc1ccc(NC(=O)c2cscn2)cc1)c1cc(F)cc(C(F)(F)F)c1 (stereo not shown) [Example 831]	0.0011 µg/mL (≈ 2.35 nM)	>7.5 µg/mL		
O=C(Nc1ccc(NC(=S)NCc2cc(F)cc(C(F)(F)F)c2)cc1)c1csnn1 [Example 587]	0.005 µg/mL (≈ 11 nM)	>10 µg/mL		
O=C(Nc1ccc(NC(=S)NCc2ccc(F)c(C(F)(F)F)c2)cc1)c1csnn1 [Example 624]	0.002 µg/mL (≈ 4.39 nM)	>10 µg/mL		

SMILES	IC50 (ug/ml) HCMV [1]	IC50 (ug/ml) VZV (VZV strain Ellen)	IC50 ([1]; Human betaherpesvirus 5, Fibroblast, read-out: IC50 (ug/ml) HCMV)	inhibition at 10 µg/mL (VZV strain Ellen; Human alphaherpesvirus 3, read-out: % inhibition 10 ug/ml VZV, at 10 ug/ml, VZV strain Ellen in HFF cells)
O=C(Nc1ccc(NC(=S)NCCc2ccccc2)cc1)c1ccco1 [Example 574]	0.089 µg/mL (≈ 244 nM)	>10 µg/mL		
CC(=O)Nc1ccc(NC(=S)Nc2ccc(-c3ccno3)c(Cl)c2)cc1 [Example 974, N-{4-[3-(3-Chloro-4-isoxazol-5-yl-phenyl)-thioureido]-phenyl} -acetamide]			0.011 µg/mL (≈ 28.4 nM)	14%
CCC(NC(=S)Nc1ccc(NC(=O)c2csnn2)cc1)c1cc(C(F)(F)F)cc(C(F)(F)F)c1 (stereo not shown) [Example 857]	0.0006 µg/mL (≈ 1.12 nM)	>7.5 µg/mL		
O=C(Nc1ccc(NC(=S)NCc2cccc(Cl)c2)cc1)c1csnn1 [Example 572]	0.0078 µg/mL (≈ 19.3 nM)	>10 µg/mL		
CC(NC(=S)Nc1ccc(NC(=O)c2cscn2)cc1)c1ccc(Cl)c(F)c1 (stereo not shown) [Example 853]	0.004 µg/mL (≈ 9.2 nM)	0.62 µg/mL (≈ 1430 nM)		
CC(NC(=S)Nc1ccc(NC(=O)c2cscn2)cc1)c1ccc(C(F)(F)F)cc1F (stereo not shown) [Example 832]	0.001 µg/mL (≈ 2.13 nM)	>7.5 µg/mL		
CN(C)c1cc(CNC(=S)Nc2ccc(NC(=O)c3csnn3)cc2)cc(C(F)(F)F)c1 [Example 618]	0.0016 µg/mL (≈ 3.33 nM)	>10 µg/mL		
O=C(Nc1ccc(NC(=S)NCCc2ccccc2)cc1)c1csnn1 [Example 575]	0.017 µg/mL (≈ 44.3 nM)	2 µg/mL (≈ 5220 nM)		
CC(NC(=S)Nc1ccc(NC(=O)c2cscn2)cc1)c1cccc(F)c1 (stereo not shown) [Example 842]	0.02 µg/mL (≈ 49.9 nM)	1.55 µg/mL (≈ 3870 nM)		
Cn1cnc(C(=O)Nc2ccc(NC(=S)NCc3cc(C(F)(F)F)cc(C(F)(F)F)c3)cc2)c1 [Example 864]	0.5 µg/mL (≈ 997 nM)	>7.5 µg/mL		
O=C(Nc1ccc(NC(=S)NCc2cccc(F)c2)cc1)c1csnn1 [Example 732]	0.022 µg/mL (≈ 56.8 nM)			
O=C(Nc1ccc(NC(=S)NCCOc2ccccc2F)cc1)c1csnn1 [Example 735]	0.022 µg/mL (≈ 52.7 nM)			
CC(NC(=S)Nc1ccc(NC(=O)c2cscn2)cc1)c1ccc(Cl)c(C(F)(F)F)c1 (stereo not shown) [Example 850]	0.0008 µg/mL (≈ 1.65 nM)	2.33 µg/mL (≈ 4800 nM)		
O=C(Nc1ccc(NC(=S)NCCc2cccc(F)c2)cc1)c1ccco1 [Example 573]	0.05 µg/mL (≈ 130 nM)	>10 µg/mL		
CC(NC(=S)Nc1ccc(NC(=O)c2csnn2)cc1)c1ccc(C#N)cc1 (stereo not shown) [Example 822]	0.018 µg/mL (≈ 44.1 nM)	>7.5 µg/mL		
Cc1ccc(C(C)NC(=S)Nc2ccc(NC(=O)c3cscn3)cc2)c(C)c1 (stereo not shown) [Example 834]	0.002 µg/mL (≈ 4.87 nM)	>7.5 µg/mL		
CC(NC(=S)Nc1ccc(NC(=O)c2cscn2)cc1)c1ccc(Br)c(Br)c1 (stereo not shown) [Example 855]	0.02 µg/mL (≈ 37 nM)			
O=C(Nc1ccc(NC(=S)NCc2ccccc2F)cc1)c1csnn1 [Example 730]	0.033 µg/mL (≈ 85.2 nM)			
CC(NC(=S)Nc1ccc(NC(=O)c2cscn2)cc1)c1ccc(F)cc1Br (stereo not shown) [Example 854]	0.02 µg/mL (≈ 41.7 nM)			
CC(NC(=S)Nc1ccc(NC(=O)c2cscn2)cc1)c1ccc(F)c(Cl)c1 (stereo not shown) [Example 856]	0.02 µg/mL (≈ 46 nM)			
O=C(Nc1ccc(NC(=S)NCCOc2cccc(F)c2)cc1)c1csnn1 [Example 736]	0.012 µg/mL (≈ 28.7 nM)			

From patent US6426355B1, “Heterocyclic carboxamide-containing thiourea inhibitors of herpes viruses containing phenylenediamine group” (American Home Products, priority 1998, dated 2002)
